Test results reported in paper PMC6387620 (Nature microbiology, 2018).

System: E. coli BW25113
Assay type: cell-based, Escherichia coli
Details: n=3

Substance: Polymyxin B
- Increase in Polymyxin B resistance: five
